Laboratory results reported in publication PMC2716488, “Functional Expression of a DNA-Topoisomerase IB from Cryptosporidium parvum” (Journal of Biomedicine and Biotechnology, 2009).

Molecular target: T1, CpTopIB (Cryptosporidium parvum, UniProt Q5CY81)
T1 construct: gene cgd7_3350; expressed from YCpGAL in S. cerevisiae EKY3 (top1 deleted), purified on phosphocellulose and phenyl-sepharose; monomer; no tag mentioned
T1 sequence (Q5CY81 13-653): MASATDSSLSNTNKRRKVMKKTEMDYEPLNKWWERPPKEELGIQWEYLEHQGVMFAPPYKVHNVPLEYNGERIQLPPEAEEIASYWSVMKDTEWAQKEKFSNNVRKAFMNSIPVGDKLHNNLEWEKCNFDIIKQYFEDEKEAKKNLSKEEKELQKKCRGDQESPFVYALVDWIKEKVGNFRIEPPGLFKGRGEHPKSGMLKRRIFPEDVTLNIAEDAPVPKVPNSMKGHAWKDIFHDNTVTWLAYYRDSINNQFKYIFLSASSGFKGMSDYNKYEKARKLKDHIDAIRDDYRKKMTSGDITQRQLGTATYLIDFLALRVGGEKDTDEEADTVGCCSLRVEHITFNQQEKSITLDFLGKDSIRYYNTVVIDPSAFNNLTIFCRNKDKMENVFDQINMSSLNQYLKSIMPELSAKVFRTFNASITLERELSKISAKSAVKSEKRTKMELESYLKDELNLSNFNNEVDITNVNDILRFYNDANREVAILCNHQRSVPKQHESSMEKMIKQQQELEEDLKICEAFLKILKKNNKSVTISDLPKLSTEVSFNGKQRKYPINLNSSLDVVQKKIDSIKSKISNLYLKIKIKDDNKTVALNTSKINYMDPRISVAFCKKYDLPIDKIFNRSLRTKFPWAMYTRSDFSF
Assay: DNA cleavage assay, nicked DNA on agarose gel
Type: biochemical
Conditions: supercoiled phiX174 RF I DNA, pH 7.5, 50 mM KCl, 1% DMSO, 30 or 37°C; stabilises the enzyme-DNA cleavable complex

Row | SMILES | nicked-DNA increase at 10 and 100 μM
1 | CC[C@@]1(O)C(=O)OCc2c1cc1n(c2=O)Cc2cc3ccccc3nc2-1 [CPT, camptothecin] | There is a dose-dependent nicked-DNA increase for CPT and topotecan
2 | CC[C@@]1(O)C(=O)OCc2c1cc1n(c2=O)Cc2cc3c(CN(C)C)c(O)ccc3nc2-1 [topotecan] | There is a dose-dependent nicked-DNA increase for CPT and topotecan
